Reference: US8796267B2, “Oxazolidinone derivatives and methods of use” (Concert Pharmaceuticals, Inc., priority 2006, dated 2014)
Converted amounts (≈) assume the structure as drawn. Where two headings read alike, the source gives them in different places.

How the values were obtained:
M. catarrhalis = assay: MIC assay (broth microdilution); assay type: cell-based; conditions: Moraxella catarrhalis; 30 isolates
Experimental: (§1) The three test compounds were stored at 4° C. until tested.
(§2) All test articles and drugs were dissolved in 50% dimethyl sulfoxide (DMSO) at one-half the volume needed to prepare the stock solution. Once the compound was in solution, the rest of the volume was added as sterile deionized water. The drug solutions were allowed to stand at room temperature for 1 hr to allow for auto-sterilization. Stock solutions were prepared at 40-fold the highest final test concentration in the test plate. The final concentration of DMSO in the assay was 2.5%.
(§3) The test organisms were obtained from clinical laboratories; quality control cultures were from the American Type Culture Collection. The test groups included Staphylococcus aureus, Staphylococcus epidermidis, Enterococcus faecalis, Enterococcus faecium, Streptococcus pneumoniae, Streptococcus pyogenes, Streptococcus agalactiae, Haemophilus influenzae, and Moraxella catarrhalis. Various phenotypic susceptibility/resistance groups were represented. Organisms received were streaked for isolation on agar medium appropriate to each organism. Colonies were picked by swab from the isolation plates and put into suspension in the appropriate media containing a cryoprotectant. The suspensions were aliquoted into cryogenic vials and maintained at −80° C. The isolates were thawed and passaged on the appropriate agar medium: Trypticase Soy agar (TSA) for most organisms, TSA plus 5% sheep blood for streptococci, and chocolate agar for Haemophilus. The plates were incubated overnight at 35° C. Haemophilus plates were incubated in the presence of CO2.
(§4) The medium employed for the MIC assay was Mueller Hinton II Broth (MHB II-Becton Dickinson, Sparks, Md. #212322, Lot #7143673) for most of the organisms. MHB II was supplemented with 2% lysed horse blood (Cleveland Scientific Lot #H93152) to accommodate the growth of Streptococcus pneumoniae. Haemophilus influenzae was tested in Haemophilus Test Medium. On the day of the test, the medium to be used in the daptomycin row of the daughters was supplemented with calcium ions to the final concentration of 50 μg/mL, taking into account the calcium that was already present in the medium.
(§5) The MIC assay method followed the procedure described by the Clinical and Laboratory Standards Institute and employed automated liquid handlers to conduct serial dilutions and liquid transfers. Automated liquid handlers included the Multidrop 384, Labsystems, Helsinki, Finland; Biomek 2000 and Multimek 96, Beckman Coulter, Fullerton Calif. The wells of standard 96-well microdilution plates (Falcon 3918) were filled with 150 μL of DMSO:deionized H2O (1:1) on the Multidrop 384. The drugs were dispensed into Column 1 of a deep well plate. The Biomek 2000 transferred 150 μL of each drug into one well in Column 1 of a “mother plate” and completed serial transfers through Column 11 in the mother plates. The wells of Column 12 contained no drug and were the organism growth control wells.
(§6) The daughter plates were loaded with 85 μL of the appropriate test media described above using the Multidrop 384. The daughter plates were prepared on the Multimek 96 instrument which transferred 5 μL of drug solution from each well of a mother plate to each corresponding well of each daughter plate in a single step.
(§7) Standardized inoculum of each organism was prepared per CLSI methods (Clinical and Laboratory Standards Institute. Methods for Dilution Antimicrobial Susceptibility Tests for Bacteria That Grow Aerobically; Approved Standard—Seventh Edition. Clinical and Laboratory Standards Institute document M7-A7 [ISBN 1-56238-587-9]. Clinical and Laboratory Standards Institute, 940 West Valley Road, Suite 1400, Wayne, Pa. 19087-1898 USA, 2006). Suspensions were prepared in MHB to equal a 0.5 McFarland standard. The suspensions were diluted 1:19 in broth appropriate to the organism. […]

S. agalactiae = assay: MIC assay (broth microdilution); assay type: cell-based; conditions: Streptococcus agalactiae
Experimental: as §1, §2, §3, §4, §5, §6, §7

S. pyogenes = assay: MIC assay (broth microdilution); assay type: cell-based; conditions: Streptococcus pyogenes; read-out: potency (MIC90)
Experimental: as §1, §2, §3, §4, §5, §6, §7

community-acquired MRSA = assay: MIC assay (broth microdilution); assay type: cell-based; conditions: Staphylococcus aureus, clinical isolates
Experimental: as §1, §2, §3, §4, §5, §6, §7

[1] = system: methicillin-resistant S. aureus (MRSA); assay: MIC assay (broth microdilution); assay type: cell-based; conditions: Staphylococcus aureus, clinical isolates
Experimental: as §1, §2, §3, §4, §5, §6, §7

[2] = system: methicillin-resistant S. epidermidis (MRSE); assay: MIC assay (broth microdilution); assay type: cell-based; conditions: Staphylococcus epidermidis, clinical isolates
Experimental: as §1, §2, §3, §4, §5, §6, §7

[3] = system: methicillin-sensitive S. epidermidis (MSSE); assay: MIC assay (broth microdilution); assay type: cell-based; conditions: Staphylococcus epidermidis; clinical isolates
Experimental: as §1, §2, §3, §4, §5, §6, §7

[4] = system: methicillinsensitive S. aureus (MSSA); assay: MIC assay (broth microdilution); assay type: cell-based; conditions: Staphylococcus aureus, clinical isolates
Experimental: as §1, §2, §3, §4, §5, §6, §7

[5] = system: penicillin-intermediate S. pneumoniae; assay: MIC assay (broth microdilution); assay type: cell-based; conditions: Streptococcus pneumoniae; 27 isolates
Experimental: as §1, §2, §3, §4, §5, §6, §7

[6] = system: penicillin-resistant S. pneumoniae; assay: MIC assay (broth microdilution); assay type: cell-based; conditions: Streptococcus pneumoniae; 28 isolates
Experimental: as §1, §2, §3, §4, §5, §6, §7

[7] = system: penicillin-sensitive S. pneumoniae; assay: MIC assay (broth microdilution); assay type: cell-based; conditions: Streptococcus pneumoniae; 27 isolates
Experimental: as §1, §2, §3, §4, §5, §6, §7

[8] = system: vancomycin-resistant E. faecalis; assay: MIC assay (broth microdilution); assay type: cell-based; conditions: Enterococcus faecalis; clinical isolates
Experimental: as §1, §2, §3, §4, §5, §6, §7

[9] = system: vancomycin-resistant E. faecium; assay: MIC assay (broth microdilution); assay type: cell-based; conditions: Enterococcus faecium; clinical isolates
Experimental: as §1, §2, §3, §4, §5, §6, §7

[10] = system: vancomycin-sensitive E. faecalis; assay: MIC assay (broth microdilution); assay type: cell-based; conditions: Enterococcus faecalis; clinical isolates
Experimental: as §1, §2, §3, §4, §5, §6, §7

[11] = system: vancomycin-sensitive E. faecium; assay: MIC assay (broth microdilution); assay type: cell-based; conditions: Enterococcus faecium; printed only as 'a value'
Experimental: as §1, §2, §3, §4, §5, §6, §7

H. influenzae = assay: MIC assay (broth microdilution); assay type: cell-based, Haemophilus influenzae; conditions: in words
Experimental: as §1, §2, §3
The medium employed for the MIC assay was Mueller Hinton II Broth (MHB II-Becton Dickinson, Sparks, Md. #212322, Lot #7143673) for most of the organisms. MHB II was supplemented with 2% lysed horse blood (Cleveland Scientific Lot #H93152) to accommodate the growth of Streptococcus pneumoniae. Haemophilus influenzae was tested in Haemophilus Test Medium. […]

[12] = system: antibiotic resistant Grampositive pathogens including MRSA, VRE, and PRSP; assay: In vitro antibacterial activity, overall conclusion; assay type: cell-based; conditions: in words
Experimental: as §1, §2
as §3, with “The isolates were thawed and passaged on the appropriate agar medium: Trypticase Soy agar (TSA) for most organisms, TSA plus 5% sheep blood for streptococci, and chocolate agar for Haemophilus. The plates were incubated overnight at 35° C. Haemophilus plates were incubated in the presence of CO2.” left out

[13] = system: mtDNA-encoded protein synthesis in HepG2 cells; assay: Mitochondria Toxicity Study (Complex IV/Frataxin ratio, dipstick); conditions: for IC50: Homo sapiens, HepG2; for mitochondria toxicity: in words, versus linezolid
[14] = in words; cited from earlier work
[15] = humans; cited from earlier work
[16] = cited from earlier work
[17] = system: Vancomycin-Resistant Enterococcus faecium; Staphylococcus aureus; Streptococcus pneumoniae; Streptococcus pyogenes; Streptococcus agalactiae infections; conditions: clinical trials, in words; cited from earlier work
in vivo [18] = conditions: male, Sprague Dawley, rat, po, 5 mg/kg
Experimental: The combo dose was prepared by mixing both by 1:1 to yield a concentration of 5 mg/mL for each compound (pH ˜6) for intravenous and oral administration. The obtained solution was clear and colourless.
Male Sprague Dawley rats (body weight: 170 g to 220 g) were used in this study. Before the pharmacokinetic studies, animals were randomly assigned to the treatment groups.
The plasma samples and the dose formulation were stored at −20° C. until bioanalysis. Sample Analysis
Plasma samples (0.1 mL) were transferred to Eppendorff tube, then 20 μL methanol, and 300 μL IS solution (50 ng/mL) were added to it. After Vortexing for 1 min and centrifuging for 5 min at 15,000 rpm, 5 μL of supernatant was injected into LC/MS/MS.
The concentrations in plasma below the limit of quantitation (LOQ=5 ng/mL) were designated as zero. The pharmacokinetic data analysis was performed using noncompartmental analysis modules in WinNonlin2.0.

in vivo [19] = conditions: 150 mg; for AUC(0-t): both, chimpanzee, po; for half-life: iv
Experimental: The dosing solution is then filtered through a 0.22 μm filter prior to dosing.
(§8) Four chimpanzees (two male and two female) were used in the study. One male and one female were used for the intravenous study and one male and one female were used for the oral dosing study. All animals were fasted overnight prior to dosing. For all studies animals were sedated with ketamine (approx. 10 mg/ml) or telazol (approx. 5 mg/ml) prior to dosing. […] Intravenous doses were administered (150 ml at 2 mg/ml combined drugs) by infusion over a 30 minute period. Oral doses were administered in a volume of 150 ml at 2 mg/ml combined drugs.
(§9) For the intravenous study, a 4.5 ml aliquot of blood was taken from each animal prior to the start of infusion, 15 minutes after the start of infusion, and immediately before the end of infusion. Additional samples were taken at 6, 15, 30, and 60 minutes and 1.5, 2, 4, 6, 8 and 24 hours following infusion. For the oral study, 4.5 ml aliquots of blood were taken from each animal prior to doing and then at 15, 20 and 60 minutes and 1.5, 2, 4, 6, 8 and 24 hours post dosing. All blood samples were collected into vacutainer tubes containing sodium heparin as an anticoagulant, sufficiently mixed and stored on wet ice. The samples were centrifuged within 1 hour of collection and the plasma collected and frozen at −70° C. until analysis. Urine was also collected from each animal over a 24 hour period following dosing.
Chimp plasma sample (100 μL) was mixed with 300 μL internal standard solution prior to LC-MS/MS analysis. The internal standard was 250 ng/mL haloperidol in acetonitrile/water (90/10, v/v). After protein precipitation, 10 L supernatant was injected to a Zorbax SB-C8 (Rapid Resolution) column (2.1×30 mm, 3.5 μm). The initial mobile phase condition was 100% A (water with 0.1% formic acid) and 0% B (acetonitrile with 0.1% formic acid) with a flow rate at 0.5 mL/min. Mobile phase B was allowed to reach 90% within 2 minutes and held for 1 minute before ramping back 0% at 3.2 minutes. The overall run time was six minutes.

[20] = system: Cyp isoforms (1A2; 2C9; 2C19; 2D6; 2E1; 3A4); conditions: cited from earlier work
[21] = in words
Experimental: as §8, §9
Urine samples were similarly analyzed. […]

MIC90 (M. catarrhalis) | MIC90 (S. agalactiae) | MIC90 (S. pyogenes) | MIC90 (community-acquired MRSA) | MIC90 [1] | MIC90 [2] | MIC90 [3] | MIC90 [4] | MIC90 [5] | MIC90 [6] | MIC90 [7] | MIC90 [8] | MIC90 [9] | MIC90 [10] | MIC90 [11] | Compound | activity (H. influenzae) | activity against antibiotic resistant Grampositive pathogens [12] | IC50 [13] | mitochondria toxicity [13] | activity of metabolite [14] | other results
4 µg/mL (≈ 11.6 µM) | 2 µg/mL (≈ 5.79 µM) | 1 µg/mL (≈ 2.9 µM) | 2 µg/mL (≈ 5.79 µM) | 4 µg/mL (≈ 11.6 µM) | 2 µg/mL (≈ 5.79 µM) | 2 µg/mL (≈ 5.79 µM) | 4 µg/mL (≈ 11.6 µM) | 2 µg/mL (≈ 5.79 µM) | 2 µg/mL (≈ 5.79 µM) | 2 µg/mL (≈ 5.79 µM) | 2 µg/mL (≈ 5.79 µM) | 2 µg/mL (≈ 5.79 µM) | 2 µg/mL (≈ 5.79 µM) | 2 µg/mL (≈ 5.79 µM) | [2H]C1([2H])OC([2H])([2H])C([2H])([2H])N(c2ccc(N3C[C@H](CNC(C)=O)OC3=O)cc2F)C1([2H])[2H] [Compound 101] | poor activity | good activity | 10.5 µM | comparable to that of linezolid |  | % increase in AUC (both, chimpanzee, in vivo, iv): 31%; % increase in Half-life (both, chimpanzee, in vivo, iv): 30%; % increase in AUC (both, chimpanzee, in vivo, po): 41%; % increase in Cmax (both, chimpanzee, in vivo, po): 22%
8 µg/mL (≈ 23.7 µM) | 2 µg/mL (≈ 5.93 µM) | 1 µg/mL (≈ 2.96 µM) | 2 µg/mL (≈ 5.93 µM) | 4 µg/mL (≈ 11.9 µM) | 2 µg/mL (≈ 5.93 µM) | 2 µg/mL (≈ 5.93 µM) | 4 µg/mL (≈ 11.9 µM) | 2 µg/mL (≈ 5.93 µM) | 2 µg/mL (≈ 5.93 µM) | 2 µg/mL (≈ 5.93 µM) | 2 µg/mL (≈ 5.93 µM) | 2 µg/mL (≈ 5.93 µM) | 2 µg/mL (≈ 5.93 µM) | 2 µg/mL (≈ 5.93 µM) | CC(=O)NC[C@H]1CN(c2ccc(N3CCOCC3)c(F)c2)C(=O)O1 [Linezolid, (S)—N-[[3-[3-Fluoro-4-(4-morpholinyl)phenyl]-2-oxo-5-oxazolidinyl]methyl]-acetamide, reference compound] | poor activity |  | 7.8 µM |  |  | administered dose found in the urine as the parent compound [15]: Approximately 35%; dose accounted for as the two metabolites (M4, M6) [15]: 50%; tolerability ([16]; 725 mg three times a day, increase in serum creatinine): could not be tolerated; myelosuppression ([16]; patients receiving linezolid, reversible): Myelosuppression has been reported; efficacy in treatment of infections [17]: effective; Tmax (in vivo [18]): 0.83 ± 1.01 h; AUC(0-t) (in vivo [19]): 11300 ng·h/mL; half-life (in vivo [19]; female): 4.5 h; half-life (in vivo [19]; male): 4.5 h; Cyp substrate, inhibitor or inducer [20]: not a substrate, inhibitor, or inducer
 |  | 1 µg/mL (≈ 2.88 µM) | 2 µg/mL (≈ 5.76 µM) |  |  |  | 4 µg/mL (≈ 11.5 µM) |  |  |  |  |  |  |  | [2H]C([2H])(NC(C)=O)[C@H]1CN(c2ccc(N3C([2H])([2H])C([2H])([2H])OC([2H])([2H])C3([2H])[2H])c(F)c2)C(=O)O1 [Compound 100] | poor activity | good activity | 9.3 µM | comparable to that of linezolid |  | rate of metabolism versus linezolid (chimpanzee studies, in words): more slowly metabolized than linezolid; amount of deuterated M6 metabolite versus linezolid M6 metabolite ([21]; chimpanzee urine): essentially the same; amount excreted intact in the urine versus linezolid ([21]; chimpanzee, regardless of route or sex): approximately twice as much; AUC(0-t) (in vivo [19]): 16400 ng·h/mL; half-life (in vivo [19]; female): 6.4 h; half-life (in vivo [19]; male): 6.2 h

Continued, molecule first:

Compound | MIC90 (M. catarrhalis) | MIC90 (S. agalactiae) | MIC90 (S. pyogenes) | MIC90 (community-acquired MRSA) | MIC90 [1] | MIC90 [2] | MIC90 [3] | MIC90 [4] | MIC90 [5] | MIC90 [6] | MIC90 [7] | MIC90 [8] | MIC90 [9] | MIC90 [10] | MIC90 [11] | activity (H. influenzae) | activity against antibiotic resistant Grampositive pathogens [12] | IC50 [13] | mitochondria toxicity [13] | activity of metabolite [14] | other results
CC(=O)NCC1CN(c2ccc(NCCOCC(=O)O)c(F)c2)C(=O)O1 (stereo not shown) [Compound M6] |  |  |  |  |  |  |  |  |  |  |  |  |  |  |  |  |  |  |  | inactive | 
CC(=O)NCC1CN(c2ccc(N(CCO)CC(=O)O)c(F)c2)C(=O)O1 (stereo not shown) [Compound M4] |  |  |  |  |  |  |  |  |  |  |  |  |  |  |  |  |  |  |  | inactive | 
[2H]C1([2H])CN(c2ccc(N3C[C@H](CNC(C)=O)OC3=O)cc2F)CC([2H])([2H])O1 [Compound 103, (S)—N-((3-(3-fluoro-4-(4-morpholino-2,2,6,6-d4)-phenyl)-2-oxooxazolidin-5-yl)methyl)acetamide] |  |  |  |  |  |  |  |  |  |  |  |  |  |  |  |  |  | 9.7 µM | comparable to that of linezolid |  | 
